Source: patent publication US7037644B1, “Means and methods for monitoring non-nucleoside reverse transcriptase inhibitor antiretroviral therapy and guiding therapeutic decisions in the treatment of HIV/AIDS” (ViroLogic, Inc., priority 1998, dated 2006)

Tests used:
[1] = tested on: RTV-209, patient 97-209 (RT E138A, Y188L); assay: Phenotypic susceptibility assay (patient RTV); assay type: cell-based, HIV-1; conditions: patient RTV pool
Description: The resistance test vectors containing a functional luciferase gene cassette were constructed and host cells were transfected with the resistance test vector DNA. The resistant test vectors contained patient-derived reverse transcriptase and protease sequences that were either susceptible or resistant to the antiretroviral agents, such as nucleoside reverse transcriptase inhibitors, non-nucleoside reverse transcriptase inhibitors and protease inhibitors. […] The IC50 values were determined by plotting percent drug inhibition vs. log10 drug concentration.
Host cells were seeded in 10-cm-diameter dishes and were transfected several days after plating with resistance test vector plasmid DNA and the envelope expression vector. […] HIV capsid protein (p24) levels in the harvested cell culture media were determined by an EIA method as described by the manufacturer (SIAC; Frederick, Md.). […] The inhibitory effect of the drug was determined using the following equation: % luciferase inhibition=1−(RLUluc [drug]÷RLUluc)×100 where RLUluc [drug] is the relative light unit of luciferase activity in infected cells in the presence of drug and RLUluc is the Relative Light Unit of luciferase activity in infected cells in the absence of drug. […]

[2] = tested on: HIV reverse transcriptase with mutations at codon 230 (leucine) and 181 (cysteine); assay: Phenotypic susceptibility assay; assay type: cell-based; conditions: mutations at codons 230 and 181
Text: In another specific embodiment, the invention provides for a method of evaluating the effectiveness of NNRTI antiretroviral therapy of a patient comprising (i) collecting a biological sample from an HIV-infected patient; and (ii) determining whether the biological sample comprises nucleic acid encoding HIV RT having a mutation at codon(s) 230 and/or 181. […] In another specific embodiment, the invention provides for a method of evaluating the effectiveness of NNRTI antiretroviral therapy of a patient comprising (i) collecting a biological sample from an HIV-infected patient; and (ii) determining whether the biological sample comprises nucleic acid encoding HIV RT having a mutation at codon 181. […] In another specific embodiment, the invention provides for a method of evaluating the effectiveness of NNRTI antiretroviral therapy of a patient comprising (i) collecting a biological sample from an HIV-infected patient; and (ii) determining whether the biological sample comprises nucleic acid encoding HIV RT having a mutation at codon 188. […]

Row | Structure (SMILES) | decrease in susceptibility (fold, IC50) [1] | change in susceptibility [2]
1 | CC(C)Nc1cccnc1N1CCN(C(=O)c2cc3cc(NS(C)(=O)=O)ccc3[nH]2)CC1 [delavirdine] | 75 fold | significant decrease
2 | Cc1ccnc2c1NC(=O)c1cccnc1N2C1CC1 [nevirapine] | greater than 800 fold | significant decrease
